Data on four molecules can be found in patent publication US8859505B2, “Cysteine protease inhibitors” (Medivir UK Ltd, priority 2010, dated 2014).

In one data set the target is T1, human cathepsin S (Homo sapiens, UniProt P25774).
T1 construct: made in house; host or cells: baculovirus expression system
Kind of data set: Cathepsin S Ki determination. In kind it is biochemical. Particulars: baculovirus-expressed enzyme, boc-Val-Leu-Lys-AMC substrate, pH 6.5; read-out: Ki Cat. S. The protocol: The assay uses baculovirus-expressed human cathepsin S and the boc-Val-Leu-Lys-AMC fluorescent substrate available from Bachem in a 384 well plate format, in which 7 test compounds can be tested in parallel with a positive control comprising a known cathepsin S inhibitor comparator.
280 μL/well of 12.5% DMSO are added to rows B-H of two columns of a 96 deep well polypropylene plate. 70 μL/well of substrate is added to row A. 2×250 μL/well of assay buffer (100 mM Na phosphate, 100 mM NaCl, pH 6.5) is added to row A, mixed, and double diluted down the plate to row H.
100 μL/well of assay buffer is added to columns 2-5 and 7-12 of 4 rows of a 96 well V bottom polypropylene plate. 200 μL/well of assay buffer is added to columns 1 and 6.
2 μl of each 10 mM test compound is added to a separate well on row A, columns 1-10. Add 90 μl assay buffer containing 1 mM DTT and 2 nM cathepsin S to each well of rows B-H and 180 μl to row A. Mix row A using a multichannel pipette and double dilute to row G. Mix row H and read in the fluorescent spectrophotometer. The readings are Prism data fitted to the competitive inhibition equation, setting S=100 μM and KM=100 μM to obtain an estimate of the up to a maximum of 100 μM.
The second test compound is added to column 6 of the top row, the third to column 1 of the second row etc. Add 1 μL of comparator to column 6 of the bottom row. Mix column 1 and double dilute to column 5. Mix column 6 and double dilute to column 10.
Using an 8-channel multistepping pipette set to 5×10 μL, distribute 10 μL/well of substrate to the 384 well assay plate. Distribute the first column of the substrate dilution plate to all columns of the assay plate starting at row A. The tip spacing of the multichannel pipette will correctly skip alternate rows. Distribute the second column to all columns starting at row B.
Using a 12-channel multistepping pipette set to 4×10 μL, distribute 10 μL/well of inhibitor to the 384 well assay plate. Distribute the first row of the inhibitor dilution plate to alternate rows of the assay plate starting at A1. The tip spacing of the multichannel pipette will correctly skip alternate columns. Similarly, distribute the second, third and fourth rows to alternate rows and columns starting at A2, B1 and B2 respectively.
Mix 20 mL assay buffer and 20 μL 1M DTT. Add sufficient cathepsin S to give 2 nM final concentration.
Using the a distributor such as a Multidrop 384, add 30 μL/well to all wells of the assay plate and read in fluorescent spectrophotometer such as an Ascent.
Fluorescent readings, (excitation and emission wavelengths 390 nm and 460 nm respectively, set using bandpass filters) reflecting the extent of enzyme cleavage of the fluorescent substrate, […] the inhibitor, are linear rate fitted for each well.
Fitted rates for all wells for each inhibitor are fitted to the competitive inhibition equation using SigmaPlot 2000 to determine V, Km and Ki values.
(§1) Potential inhibitors are screened using the above assay with variable concentrations of test compound. Reactions were initiated by addition of enzyme to buffered solutions of substrate and inhibitor. Ki values were calculated according to equation 1.
(§2) [formula] where v0 is the velocity of the reaction, V is the maximal velocity, S is the concentration of substrate with Michaelis constant of KM, and I is the concentration of inhibitor.

In a further data set the target is human cathepsin L (Homo sapiens, UniProt P07711). Kind of data set: Cathepsin L Ki. The data set is classed as biochemical. Particulars: H-D-Val-Leu-Lys-AMC substrate, pH5.5; read-out: Ki Cat. L. How it is done: The procedure above with the following amendments is used for the determination of Ki for cathepsin L.
The enzyme is commercially available human cathepsin L (for example Calbiochem). The substrate is H-D-Val-Leu-Lys-AMC available from Bahcem. The assay buffer is 100 mM sodium acetate 1 mM EDTA, pH5.5) The DMSO stock (10 mM in 100% DMSO) is diluted to 10% in assay buffer. Enzyme is prepared at 5 nM concentration in assay buffer plus 1 mM dithiothreitol just before use. 2 μL of 10 mM inhibitor made up in 100% DMSO is dispensed into row A. 10 μL of 50 μM substrate (=1/200 dilution of 10 mM stock in DMSO, diluted in assay buffer).
as §1, §2

Data set [1] deals with T2, human recombinant cathepsin K (Homo sapiens, UniProt P43235).
T2 construct: made in house; host or cells: not fixed: E coli, Pichia or Baculovirus systems named as options
T2 sequence (P43235 115-329): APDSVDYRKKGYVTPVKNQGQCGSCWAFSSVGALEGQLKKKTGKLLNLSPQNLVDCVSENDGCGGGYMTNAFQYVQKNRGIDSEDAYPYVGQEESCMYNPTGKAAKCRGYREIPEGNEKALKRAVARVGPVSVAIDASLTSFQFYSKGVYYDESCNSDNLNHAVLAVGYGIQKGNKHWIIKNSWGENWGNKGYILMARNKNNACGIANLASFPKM
Nature of the data set: Determination of cathepsin K proteolytic catalytic activity (Ki). In kind it is biochemical. As to conditions: fluorogenic substrate H-D-Ala-Leu-Lys-AMC; read-out: Ki Cat. K. How it is done: Convenient assays for cathepsin K are carried out using human recombinant enzyme, such as that described in PDB. • ID BC016058 standard; mRNA; HUM; 1699 BP. • DE Homo sapiens cathepsin K (pycnodysostosis), mRNA (cDNA clone MGC:23107 • RX MEDLINE;. RX PUBMED; 12477932. • DR RZPD; IRALp962G1234. • DR SWISS-PROT; P43235;
The recombinant cathepsin K can be expressed in a variety of commercially available expression systems including E coli, Pichia and Baculovirus systems. The purified enzyme is activated by removal of the prosequence by conventional methods.
Standard assay conditions for the determination of kinetic constants used a fluorogenic peptide substrate, typically H-D-Ala-Leu-Lys-AMC, and were determined in either 100 mM Mes/Tris, pH 7.0 containing 1 mM EDTA and 10 mM 2-mercaptoethanol or 100 mMNa phosphate, imM EDTA, 0.1% PEG4000 pH 6.5 or 100 mM Na acetate, pH 5.5 containing 5 mM EDTA and 20 mM cysteine, in each case optionally with […] as stabiliser. The enzyme concentration used was 5 nM. The stock substrate solution was prepared at 10 mM in DMSO. Screens were carried out at a fixed substrate concentration of 60 μM and detailed kinetic studies with doubling dilutions of substrate from 250 μM. The total DMSO concentration in the assay was kept below 3%. All assays were conducted at ambient temperature. Product fluorescence (excitation at 390 nm, emission at 460 nm) was monitored with a Labsystems Fluoroskan Ascent fluorescent plate reader. Product progress curves were generated over 15 minutes following generation of AMC product.
as §1, §2

For data set [2] the following is noted: reference markers for permeability categories; cited from earlier work.

T1 sequence (P25774 115-331): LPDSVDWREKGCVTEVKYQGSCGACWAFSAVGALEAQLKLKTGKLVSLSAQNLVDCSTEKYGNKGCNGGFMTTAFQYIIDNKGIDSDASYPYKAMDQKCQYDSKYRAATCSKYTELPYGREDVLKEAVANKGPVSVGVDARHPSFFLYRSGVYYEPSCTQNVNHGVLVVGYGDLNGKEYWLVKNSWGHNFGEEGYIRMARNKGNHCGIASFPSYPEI
Sequence of human cathepsin L (P07711 114-333): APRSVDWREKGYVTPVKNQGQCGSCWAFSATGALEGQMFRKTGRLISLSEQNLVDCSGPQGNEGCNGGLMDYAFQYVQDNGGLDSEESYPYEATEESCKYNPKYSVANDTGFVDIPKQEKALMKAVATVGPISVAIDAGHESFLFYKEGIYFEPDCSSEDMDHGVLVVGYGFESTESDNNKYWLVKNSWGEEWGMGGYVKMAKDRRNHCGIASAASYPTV

By Ki is commonly meant a dissociation constant, usually derived from enzyme kinetics or from competition with a known ligand. For `CC(C)OC(=O)N[C@@H](CC1(F)CCCC1)C(=O)NC1(C(=O)C(N)=O)CCC1` [Example C14], the inhibitory constant (Ki) came out at 2.1 nM at human cathepsin S, 2800 nM on human cathepsin L and 640 nM in data set [1].
As to `N[C@@H](Cc1ccccc1)C(=O)O` [L-Phenylalanine], the “absorption in man (%)” value in data set [2] is reported as 100%.
For the molecule `OC[C@@H](O)[C@@H](O)[C@H](O)[C@H](O)CO` [Mannitol], the “absorption in man (%)” value in data set [2] is 16%.
Regarding `CN(Cc1cnc2nc(N)nc(N)c2n1)c1ccc(C(=O)N[C@@H](CCC(=O)O)C(=O)O)cc1` [Methotrexate], in data set [2], the “absorption in man (%)” value was 20%.
